Reference: patent US7547804B2, “Compounds, compositions, and methods employing same” (Myriad Genetics, Inc., priority 2002, dated 2009)
pEC50: −log10 of the molar value.

tested on: LNCaP cell lines; experiment: WST-1 Cell Proliferation and Viability Assay; format: cell-based; settings: Homo sapiens; LNCaP cells, compound incubation 18-72 hours
Summary of the method: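 LNCaP cells (5000/well, phenol-red-free RPMI-1640 with 10% FCS) were plated overnight, then exposed to compounds in 0.1% DMSO final for 18-72 hours at 37 °C. Viability was read by WST-1 conversion to formazan after 3 h further incubation, measured at A490-A650.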

Row | Compound | pEC50
1 | Cc1ccc(NC(=O)c2cc(Cl)ccc2O)c(OCCc2ccccc2)c1 [Compound 150] | 5.22
2 | COc1ccccc1CCOc1cccc(NC(=O)c2cc(-c3ccc(C)cc3)ccc2O)c1 [Compound 340] | 4.80
3 | Cc1cc(Cl)c(OCCc2ccccc2C(F)(F)F)c(NC(=O)c2cc(Cl)ccc2O)c1C [Compound 240] | 5.00
4 | COc1ccc(CCOc2cccc(NC(=O)c3cc(Cl)ccc3O)c2)cc1OC [Compound 34] | 5.00
5 | CN1CCN(c2ccc(NC(=O)c3cc(Cl)ccc3O)c(OCCc3cccc(C(F)(F)F)c3)c2)CC1 [Compound 358] | 4.79
6 | COc1ccc(O)c(C(=O)Nc2cccc(OCCc3ccccc3OC)c2)c1 [Compound 186] | 4.66
7 | O=C(Nc1cccc(NCc2ccccc2)c1)c1cc(Cl)ccc1O [Compound 28] | 4.51
8 | O=C(Nc1cccc(CNc2ccc(Cl)cc2)c1)c1cc(Cl)ccc1O [Compound 74] | 5.05
9 | CCOc1cc(CNc2cccc(NC(=O)c3cc(Cl)ccc3O)c2)ccc1OCc1ccccc1 [Compound 10] | 4.85
10 | COc1ccccc1CCOc1cccc(NC(=O)c2ccc(F)cc2O)c1 [Compound 180] | 4.92
11 | O=C(Nc1cccc(OCc2ccc(Cl)cc2)c1)c1cc(Cl)ccc1O [Compound 65] | 4.77
12 | O=C(Nc1cccc(OCCc2ccccc2C(F)(F)F)c1)c1cc(Cl)ccc1O [Compound 138] | 5.22
13 | O=C(Nc1cccc(OCCCc2ccccc2)c1)c1cc(Cl)ccc1O [Compound 96] | 5.00
14 | O=C(Nc1cc(C(F)(F)F)ccc1OCc1cccc(OC(F)(F)F)c1)c1cc(Cl)ccc1O [Compound 334] | 5.05
15 | O=C(NCc1ccc(Oc2ccccc2)cc1)c1cc(Cl)ccc1O [Compound 26] | 4.62
16 | O=CNc1cc(Cl)cc(C(=O)Nc2cccc(OCCc3ccccc3)c2)c1O [Compound 124] | 5.10
17 | Cc1ccc(C(=O)Nc2cccc(OCCc3ccccc3)c2)c(O)c1 [Compound 211] | 4.66
18 | Cc1cccc(NC(=O)c2cc(Cl)ccc2O)c1 [Compound 113] | 5.10
19 | COc1ccccc1CCOc1cccc(NC(=O)c2cc(Br)cc(F)c2O)c1 [Compound 346] | 4.55

Row | Compound | pEC50
20 | COc1ccccc1CCOc1cccc(NC(=O)c2cc(C)ccc2O)c1 [Compound 209] | 4.77
21 | O=C(Nc1ccccc1OC1CCCC[C@H]1c1ccccc1)c1cc(Cl)ccc1O (stereo partly shown) [Compound 126] | 5.22
22 | O=C(NCc1ccc(OCCc2ccccc2)cc1)c1cc(Cl)ccc1O [Compound 53] | 4.64
23 | COc1ccc(NC(=O)c2cc(Cl)ccc2O)c(OC)c1 [Compound 256] | 4.59
24 | CCOc1cc(CNc2cccc(NC(=O)c3cc(Cl)ccc3O)c2)ccc1OC [Compound 20] | 4.62
25 | O=CNc1cc(Cl)cc(C(=O)Nc2cc(Cl)ccc2OCCc2ccccc2)c1O [Compound 331] | 4.91
26 | O=C(Nc1cccc(OCC2(c3ccccc3)CC2)c1)c1cc(Cl)ccc1O [Compound 44] | 5.30
27 | CCC(C)c1cccc(-c2cccc(CNC(=O)c3cc(Cl)ccc3O)c2)c1 (stereo not shown) [Compound 236] | 4.96
28 | O=C(NCc1ccc(F)c(C(F)(F)F)c1)c1cc(Cl)ccc1O [Compound 319] | 4.75
29 | CC(C)c1cccc(-c2cccc(CNC(=O)c3cc(Cl)ccc3O)c2)c1 [Compound 175] | 4.85
30 | CC(C)c1ccccc1-c1cccc(CNC(=O)c2cc(Cl)ccc2O)c1 [Compound 174] | 4.96
31 | CC(C)c1ccc(CNc2cccc(NC(=O)c3cc(Cl)ccc3O)c2)cc1 [Compound 14] | 4.74
32 | COc1ccccc1CCOc1cccc(NC(=O)c2cc(F)ccc2O)c1 [Compound 183] | 4.72
33 | O=C(Nc1ccccc1C(F)(F)F)c1cc(Cl)ccc1O [Compound 58] | 5.00
34 | Cc1ccc(NC(=O)c2cc(Cl)ccc2O)cc1 [Compound 114] | 5.00
35 | O=CNc1cccc(C(=O)Nc2cc(C(F)(F)F)ccc2Oc2ccc(Cl)c3ccccc23)c1O [Compound 269] | 5.10
36 | Cc1ccc(O)c(C(=O)NCc2cccc(-c3ccccc3)c2)c1 [Compound 206] | 4.47
37 | COc1ccc(OCCc2ccccc2C(F)(F)F)c(NC(=O)c2cc(Cl)ccc2O)c1 [Compound 170] | 5.40
38 | O=C(Nc1cc(C(F)(F)F)cc(C(F)(F)F)c1)c1cc(Cl)ccc1O [Compound 169] | 5.70

Next, values leading:

Row | pEC50 | Compound
39 | 5.40 | Cc1cc(C)c(OCCc2ccccc2)c(NC(=O)c2cc(Cl)ccc2O)c1 [Compound 101]
40 | 5.40 | O=C(Nc1ccc(NCCc2cccc(C(F)(F)F)c2)c(C(F)(F)F)c1)c1cc(Cl)ccc1O [Compound 363]
41 | 5.51 | CS(=O)(=O)c1ccc(CCOc2ccc(C(F)(F)F)cc2NC(=O)c2cc(Cl)ccc2O)cc1 [Compound 287]
42 | 5.52 | CN(C)c1ccc(CCOc2ccc(Cl)cc2NC(=O)c2cc(Cl)ccc2O)cc1 [Compound 108]
43 | 5.52 | Cc1ccc(OCCc2ccccc2)cc1NC(=O)c1cc(Cl)ccc1O [Compound 43]
44 | 5.70 | CCC(COc1ccc(Cl)cc1NC(=O)c1cc(Cl)ccc1O)c1ccccc1 (stereo not shown) [Compound 103]
45 | 6.00 | O=C(Nc1cc(C(F)(F)F)ccc1OCCOc1ccc(Cl)cc1)c1cc(Cl)ccc1O [Compound 300]
46 | 6.00 | Cc1ccccc1CCOc1ccc(Cl)cc1NC(=O)c1cc(Cl)ccc1O [Compound 76]
47 | 6.00 | Cc1cc(OCCc2ccccc2)c(NC(=O)c2cc(Cl)ccc2O)cc1Cl [Compound 153]
48 | 6.00 | O=C(Nc1cc(C(F)(F)F)ccc1OCCCc1ccccc1)c1cc(Cl)ccc1O [Compound 141]
49 | 6.00 | O=C(Nc1cc(C(F)(F)F)ccc1OCCOCCCl)c1cc(Cl)ccc1O [Compound 299]
50 | 6.00 | O=C(Nc1cc(Cl)ccc1OCCc1cccc(Cl)c1)c1cc(Cl)ccc1O [Compound 109]
51 | 6.00 | O=C(Nc1cccc(C(F)(F)F)c1)c1cc(Cl)ccc1O [Compound 56]
52 | 6.05 | O=C(Nc1cc(C(F)(F)F)ccc1OCCc1ccccc1C(F)(F)F)c1cc(Cl)ccc1O [Compound 134]
53 | 6.05 | O=C(Nc1cc(C(F)(F)F)ccc1N1CCN(c2ccccc2)CC1)c1cc(Cl)ccc1O [Compound 272]
54 | 6.05 | O=C(Nc1cc(Cl)ccc1OCCc1ccc(Cl)cc1)c1cc(Cl)ccc1O [Compound 87]
55 | 6.07 | Cc1ccccc1COc1ccc(C(F)(F)F)cc1NC(=O)c1cc(Cl)ccc1O [Compound 312]
56 | 6.10 | Cc1cc(C)c(CCOc2ccc(C(F)(F)F)cc2NC(=O)c2cc(Cl)ccc2O)c(C)c1 [Compound 135]
57 | 6.10 | CC(C)OCCOc1ccc(C(F)(F)F)cc1NC(=O)c1cc(Cl)ccc1O [Compound 296]
58 | 6.13 | Cc1ccc(COc2ccc(C(F)(F)F)cc2NC(=O)c2cc(Cl)ccc2O)cc1 [Compound 332]

same assay, conditions: Homo sapiens; LNCaP cells; flagged "Estimated": based on actual data at different concentrations

Row | pEC50 | Compound
59 | 4.52 | O=C(NCc1ccccc1-c1ccccc1)c1cc(Cl)ccc1O [Compound 237]
60 | 4.52 | O=C(NCCc1ccccc1Oc1ccccc1)c1cc(Cl)ccc1O [Compound 118]
61 | 4.60 | COc1ccccc1CCOc1cccc(NC(=O)c2cccc(F)c2O)c1 [Compound 353]
62 | 4.52 | O=C(NCc1ccc(Cl)c(-c2ccccc2)c1)c1cc(Cl)ccc1O [Compound 292]
63 | 4.52 | Cc1ccc(CNC(=O)c2cc(Cl)ccc2O)cc1-c1ccccc1 [Compound 291]
64 | 4.52 | O=C(NCc1cccc(-c2ccccc2)c1)c1cc(Cl)ccc1O [Compound 238]
